From the NIST ThermoML archive (doi:10.1021/je100967k)

Legend:
[1] = xn = mol fraction of the nth substance listed; details: 101 kPa, Liquid; for speed of sound: Pulse-echo method
[2] = refractive index (Na D-line) (dimensionless); xn = mol fraction of the nth substance listed; details: 101 kPa, Liquid, Standard Abbe refractometry

CN1CCCC1=O [N-methylpyrrolidone] + O
Details | mass density, [1] [kg/m3] | refractive index, [2] | speed of sound, [1] [m/s] | viscosity, [1] [mPa·s]
293.15 K, x1 = 0.1 | 1030.11 | 1.3907 | 1713.9 | 3.332
293.15 K, x1 = 0.2 | 1047.15 | 1.4221 | 1766.5 | 5.903
293.15 K, x1 = 0.3001 | 1052.4 | 1.4402 | 1751.6 | 6.774
293.15 K, x1 = 0.3994 | 1051.69 | 1.4507 | 1718.4 | 5.724
293.15 K, x1 = 0.4997 | 1048.9 | 1.4573 | 1683.7 | 4.469
293.15 K, x1 = 0.6001 | 1045.08 | 1.4618 | 1651.6 | 3.566
293.15 K, x1 = 0.6997 | 1041.48 | 1.4648 | 1623.8 | 2.865
293.15 K, x1 = 0.7982 | 1038.44 | 1.4673 | 1601.2 | 2.394
293.15 K, x1 = 0.899 | 1035.42 | 1.469 | 1581 | 2.041
293.15 K, x1 = 1 | 1032.87 | 1.4706 | 1565.3 | 1.858
303.15 K, x1 = 0.1 | 1023.58 | 1.3882 | 1694.6 | 2.372
303.15 K, x1 = 0.2 | 1038.47 | 1.4187 | 1732 | 3.958
303.15 K, x1 = 0.3001 | 1043.03 | 1.4363 | 1713 | 4.365
303.15 K, x1 = 0.3994 | 1042.22 | 1.4467 | 1679.1 | 3.959
303.15 K, x1 = 0.4997 | 1039.51 | 1.4533 | 1644.5 | 3.318
303.15 K, x1 = 0.6001 | 1035.8 | 1.4576 | 1612.7 | 2.71
303.15 K, x1 = 0.6997 | 1032.32 | 1.4608 | 1585.3 | 2.279
303.15 K, x1 = 0.7982 | 1029.36 | 1.4628 | 1562.6 | 1.969
303.15 K, x1 = 0.899 | 1026.41 | 1.4649 | 1542.6 | 1.705
303.15 K, x1 = 1 | 1023.95 | 1.4664 | 1526.5 | 1.553
313.15 K, x1 = 0.1 | 1016.67 | 1.3863 | 1674 | 1.75
313.15 K, x1 = 0.2 | 1029.62 | 1.4165 | 1697 | 2.749
313.15 K, x1 = 0.3001 | 1033.55 | 1.4331 | 1674.3 | 3.01
313.15 K, x1 = 0.3994 | 1032.64 | 1.4425 | 1639.3 | 2.89
313.15 K, x1 = 0.4997 | 1030.02 | 1.4492 | 1604.6 | 2.51
313.15 K, x1 = 0.6001 | 1026.44 | 1.4534 | 1573.2 | 2.153
313.15 K, x1 = 0.6997 | 1023.08 | 1.4565 | 1546.8 | 1.834
313.15 K, x1 = 0.7982 | 1020.23 | 1.4584 | 1523.9 | 1.641
313.15 K, x1 = 0.899 | 1017.37 | 1.4604 | 1504.1 | 1.46
313.15 K, x1 = 1 | 1015.03 | 1.4621 | 1487.8 | 1.324
323.15 K, x1 = 0.1 | 1009.4 | 1.384 | 1651.4 | 1.348
323.15 K, x1 = 0.2 | 1020.59 | 1.4114 | 1661.6 | 2.065
323.15 K, x1 = 0.3001 | 1023.92 | 1.4283 | 1634.9 | 2.215
323.15 K, x1 = 0.3994 | 1022.94 | 1.4387 | 1599.4 | 2.161
323.15 K, x1 = 0.4997 | 1020.43 | 1.445 | 1565.5 | 1.959
323.15 K, x1 = 0.6001 | 1016.99 | 1.4495 | 1534.1 | 1.706
323.15 K, x1 = 0.6997 | 1013.78 | 1.4524 | 1507.6 | 1.485
323.15 K, x1 = 0.7982 | 1011.06 | 1.4546 | 1485.4 | 1.361
323.15 K, x1 = 0.899 | 1008.3 | 1.4564 | 1466 | 1.242
323.15 K, x1 = 1 | 1006.1 | 1.4576 | 1450.2 | 1.146

NCCO [2-aminoethan-1-ol] + CN1CCCC1=O
Details | mass density, [1] [kg/m3] | refractive index, [2] | speed of sound, [1] [m/s] | viscosity, [1] [mPa·s]
293.15 K, x2 = 0 | 1016.65 | 1.4525 | 1735.9 | 24.61
293.15 K, x2 = 0.1 | 1017.8 | 1.4546 | 1701.7 | 17.43
293.15 K, x2 = 0.209 | 1019.27 | 1.4567 | 1673.2 | 11.99
293.15 K, x2 = 0.3 | 1020.59 | 1.4587 | 1649.8 | 8.496
293.15 K, x2 = 0.4 | 1022.06 | 1.4604 | 1630.1 | 6.211
293.15 K, x2 = 0.5 | 1023.46 | 1.462 | 1613.2 | 4.761
293.15 K, x2 = 0.596 | 1024.91 | 1.4634 | 1599.1 | 3.622
293.15 K, x2 = 0.7 | 1026.57 | 1.4648 | 1587.7 | 2.883
293.15 K, x2 = 0.8 | 1028.4 | 1.4663 | 1578.6 | 2.401
293.15 K, x2 = 0.907 | 1030.5 | 1.4677 | 1571.4 | 2.089
303.15 K, x2 = 0 | 1008.74 | 1.4488 | 1703.7 | 14.96
303.15 K, x2 = 0.1 | 1009.8 | 1.4507 | 1668.1 | 10.93
303.15 K, x2 = 0.209 | 1011 | 1.4527 | 1638.4 | 7.985
303.15 K, x2 = 0.3 | 1012.1 | 1.4546 | 1613.8 | 5.834
303.15 K, x2 = 0.4 | 1013.5 | 1.4563 | 1593.6 | 4.433
303.15 K, x2 = 0.5 | 1014.9 | 1.4578 | 1576 | 3.752
303.15 K, x2 = 0.596 | 1016.3 | 1.4592 | 1561.2 | 2.822
303.15 K, x2 = 0.7 | 1018 | 1.4605 | 1549.8 | 2.296
303.15 K, x2 = 0.8 | 1019.7 | 1.4619 | 1540.5 | 1.95
303.15 K, x2 = 0.907 | 1021.72 | 1.4632 | 1532.7 | 1.725
313.15 K, x2 = 0 | 1000.77 | 1.4449 | 1671.2 | 9.839
313.15 K, x2 = 0.1 | 1001.6 | 1.4467 | 1634.1 | 7.429
313.15 K, x2 = 0.209 | 1002.38 | 1.4486 | 1603.1 | 5.559
313.15 K, x2 = 0.3 | 1003.2 | 1.4505 | 1578.6 | 4.278
313.15 K, x2 = 0.4 | 1004.2 | 1.452 | 1557.3 | 3.358
313.15 K, x2 = 0.5 | 1005.5 | 1.4534 | 1538.9 | 2.697
313.15 K, x2 = 0.596 | 1006.9 | 1.4548 | 1523.9 | 2.245
313.15 K, x2 = 0.7 | 1008.69 | 1.4561 | 1512.1 | 1.866
313.15 K, x2 = 0.8 | 1010.68 | 1.4575 | 1502.6 | 1.62
313.15 K, x2 = 0.907 | 1012.79 | 1.4588 | 1494.4 | 1.462
323.15 K, x2 = 0 | 992.75 | 1.4417 | 1638.8 | 6.902
323.15 K, x2 = 0.1 | 993.31 | 1.4434 | 1600.2 | 5.386
323.15 K, x2 = 0.209 | 994 | 1.4451 | 1568.9 | 4.159
323.15 K, x2 = 0.3 | 994.64 | 1.4466 | 1544.4 | 3.289
323.15 K, x2 = 0.4 | 995.6 | 1.4479 | 1521.5 | 2.625
323.15 K, x2 = 0.5 | 996.7 | 1.4493 | 1502 | 2.173
323.15 K, x2 = 0.596 | 998.14 | 1.4506 | 1486.7 | 1.883
323.15 K, x2 = 0.7 | 999.74 | 1.4519 | 1474.5 | 1.574
323.15 K, x2 = 0.8 | 1001.73 | 1.4533 | 1464.8 | 1.356
323.15 K, x2 = 0.907 | 1003.86 | 1.4545 | 1456.8 | 1.24
